Measurements as given in publication PMC7180572, “5-Alkylamino-N-phenylpyrazine-2-carboxamides: Design, Preparation, and Antimycobacterial Evaluation” (Molecules, 2020).
≈ marks a conversion by molar mass, not a printed value. Where two headings read alike, the source gives them in different places.

Tests used:
[1] = system: Candida krusei ATCC 6258, CCM 8271; test: Antifungal microdilution broth method (EUCAST); format: cell-based; conditions: Pichia kudriavzevii
[2] = system: Pseudomonas aeruginosa ATCC 27853, CCM 3955; test: Antibacterial microdilution broth method (EUCAST); format: cell-based; conditions: read-out: MIC PA
[3] = system: Mycobacterium aurum DSM 43999 (ATCC 23366); test: Microdilution broth, modified Microplate Alamar Blue Assay, whole cell growth inhibition; format: cell-based; conditions: Mycolicibacterium aurum, read-out: MIC Mycobacterium aurum
[4] = system: Aspergillus flavus CCM 8363; test: Antifungal microdilution broth method (EUCAST); format: cell-based; conditions: read-out: MIC AFla
[5] = system: Enterococcus faecalis ATCC 29212, CCM 4224; test: Antibacterial microdilution broth method (EUCAST); format: cell-based; conditions: read-out: MIC EF
[6] = system: HepG2 cells; test: HepG2 cytotoxicity, CellTiter 96 (MTS) assay; format: cell-based, human; conditions: for IC50: Homo sapiens, HepG2, 24 h, read-out: HepG2 IC50; for SI, selectivity index: IC50 (HepG2)/MIC against Mtb H37Ra (in µM)
[7] = system: Staphylococcus aureus spp.aureus ATCC 29213, CCM 4223; test: Antibacterial microdilution broth method (EUCAST); format: cell-based; conditions: read-out: MIC SA
[8] = system: Acinetobacter baumanii ATCC 19606, DSM 30007; test: Antibacterial microdilution broth method (EUCAST); format: cell-based; conditions: Acinetobacter baumannii
[9] = system: Mycobacterium tuberculosis H37Ra ITM-M006710 (ATCC 9431); test: Microdilution broth, modified Microplate Alamar Blue Assay, whole cell growth inhibition; format: cell-based; conditions: Mycobacterium tuberculosis; in vitro, Middlebrook 7H9 broth, resazurin; read-out: MIC Mtb H37Ra
[10] = system: Klebsiella pneumoniae ATCC 10031, CCM 4415; test: Antibacterial microdilution broth method (EUCAST)
[11] = system: Candida albicans ATCC 24433, CCM 8320; test: Antifungal microdilution broth method (EUCAST); format: cell-based
[12] = system: Absidia corymbifera CCM 8077 (Lichtheimia corymbifera); test: Antifungal microdilution broth method (EUCAST); format: cell-based; conditions: read-out: MIC AC
[13] = system: Candida parapsilosis ATCC 22019, CCM 8260; test: Antifungal microdilution broth method (EUCAST); format: cell-based; conditions: Lodderomyces parapsilosis
[14] = system: Candida tropicalis ATCC 750, CCM 8264; test: Antifungal microdilution broth method (EUCAST); format: cell-based; conditions: read-out: MIC CT
[15] = system: Trichophyton interdigitale ATCC 9533, CCM 8377; test: Antifungal microdilution broth method (EUCAST); format: cell-based; conditions: read-out: MIC TI
[16] = system: Aspergillus fumigatus ATCC 204305; test: Antifungal microdilution broth method (EUCAST); format: cell-based; conditions: read-out: MIC AF
[17] = system: Escherichia coli ATCC 25922, CCM 3954; test: Antibacterial microdilution broth method (EUCAST); format: cell-based; conditions: read-out: MIC EC
[18] = system: Staphylococcus aureus methicillin resistant ATCC 43300, CCM 4750; test: microbe, parasite or virus in culture; format: cell-based; conditions: ATCC 43300 / CCM 4750 / MRSA, read-out: MIC MRSA
[19] = system: Staphylococcus epidermidis ATCC 12228, CCM 4418; test: Antibacterial microdilution broth method (EUCAST); format: cell-based; conditions: read-out: MIC SE
[20] = system: Mycobacterium smegmatis DSM 43465 (ATCC 607); test: Microdilution broth, modified Microplate Alamar Blue Assay, whole cell growth inhibition; format: cell-based; conditions: Mycolicibacterium smegmatis, read-out: MIC Mycobacterium smegmatis

In the case of `CCCNc1cnc(C(=O)Nc2ccc(O)cc2)cn1` [Compound 3a, N-(4-hydroxyphenyl)-5-(propylamino)pyrazine-2-carboxamide], the MIC ([1]; 24 h, read-out: MIC CK) is reported as greater than 500 µM, the MIC ([1]; 48 h, read-out: MIC CK) is reported as greater than 500 µM and the MIC ([2]; 72 h) is reported as greater than 500 µM. For the same molecule, the MIC ([2]; 120 h) was greater than 500 µM, the MIC [3] was no less than 500 µg/mL and the melting point was 209.3 to 215.6 °C. The MIC ([4]; CCM8363, 24 h) was greater than 500 µM, the MIC ([4]; CCM8363, 48 h) was greater than 500 µM and the MIC ([5]; 24 h) was greater than 500 µM. The MIC ([5]; 48 h) was greater than 500 µM, the IC50 [6] was 410 µM and the “SI, selectivity index” value [6] was 7.18. The MIC ([7]; 24 h) was greater than 500 µM, the MIC ([7]; 48 h) was greater than 500 µM and the MIC ([8]; 24h) was greater than 500 µM. The MIC ([8]; 48h) was greater than 500 µM, the MIC [9] was 15.6 µg/mL (≈ 57.4 µM) and the “MIC KP” value ([10]; 24h) was greater than 500 µM. For the same molecule, the “MIC KP” value ([10]; 48h) was greater than 500 µM, the MIC ([11]; 24 h, read-out: MIC CA) was greater than 500 µM and the MIC ([11]; 48 h, read-out: MIC CA) was greater than 500 µM. It also gave an MIC ([12]; CCM8077, 24 h) greater than 500 µM, an MIC ([12]; CCM8077, 48 h) greater than 500 µM and an MIC ([13]; 24 h, read-out: MIC CP) greater than 500 µM. It also gave an MIC ([13]; 48 h, read-out: MIC CP) greater than 500 µM, an MIC ([14]; 24 h) greater than 500 µM and an MIC ([14]; 48 h) greater than 500 µM. It also gave an MIC ([15]; 72 h) greater than 500 µM, an MIC ([15]; 120 h) greater than 500 µM and an MIC ([16]; ATCC204305, 24 h) greater than 500 µM. It also gave an MIC ([16]; ATCC204305, 48 h) greater than 500 µM, an MIC ([17]; 24 h) greater than 500 µM and an MIC ([17]; 48 h) greater than 500 µM. The MIC ([18]; 24 h) was greater than 500 µM, the MIC ([18]; 48 h) was greater than 500 µM and the MIC ([19]; 24 h) was greater than 500 µM. It also gave an MIC ([19]; 48 h) greater than 500 µM and an MIC [20] of no less than 500 µg/mL.

With `CCCCNc1cnc(C(=O)Nc2ccc(O)cc2)cn1` [Compound 3b, 5-(Butylamino)pyrazine-N-(4-hydroxyphenyl)-2-carboxamide] the MIC ([1]; 24 h, read-out: MIC CK) was greater than 250 µM, the MIC ([1]; 48 h, read-out: MIC CK) was greater than 250 µM and the MIC ([1]; read-out: MIC CK (Candida krusei)) was greater than 250 µM. For the same molecule, the MIC ([2]; 72 h) was greater than 500 µM, the MIC ([2]; 120 h) was greater than 500 µM and the MIC [3] was no less than 500 µg/mL. It also gave a melting point of 208 to 211.4 °C, an MIC ([4]; CCM8363, 24 h) greater than 250 µM and an MIC ([4]; CCM8363, 48 h) greater than 250 µM. It also gave an MIC ([5]; 24 h) greater than 500 µM, an MIC ([5]; 48 h) greater than 500 µM and an IC50 [6] of 378 µM. The “SI, selectivity index” value [6] was 3.46, the MIC ([7]; 24 h) was greater than 500 µM and the MIC ([7]; 48 h) was greater than 500 µM. It also gave an MIC ([8]; 24h) greater than 500 µM, an MIC ([8]; 48h) greater than 500 µM and an MIC [9] of 31.2 µg/mL (≈ 109 µM). The “MIC KP” value ([10]; 24h) was greater than 500 µM, the “MIC KP” value ([10]; 48h) was greater than 500 µM and the MIC ([11]; 24 h, read-out: MIC CA) was 62.5 µM (≈ 17.9 µg/mL). The MIC ([11]; 48 h, read-out: MIC CA) was 62.5 µM (≈ 17.9 µg/mL), the MIC ([11]; read-out: MIC CA (Candida albicans)) was 62.5 µM (≈ 17.9 µg/mL) and the MIC ([12]; CCM8077, 24 h) was greater than 250 µM. The MIC ([12]; CCM8077, 48 h) was greater than 250 µM, the MIC ([13]; 24 h, read-out: MIC CP) was 250 µM (≈ 71.6 µg/mL) and the MIC ([13]; 48 h, read-out: MIC CP) was 250 µM (≈ 71.6 µg/mL). For the same molecule, the MIC ([13]; read-out: MIC CP (Candida parapsilosis)) was 250 µM (≈ 71.6 µg/mL), the MIC ([14]; 24 h) was greater than 250 µM and the MIC ([14]; 48 h) was greater than 250 µM. It also gave an MIC ([15]; 72 h) greater than 250 µM, an MIC ([15]; 120 h) greater than 250 µM and an MIC ([16]; ATCC204305, 24 h) greater than 250 µM. The MIC ([16]; ATCC204305, 48 h) was greater than 250 µM, the MIC ([17]; 24 h) was greater than 500 µM and the MIC ([17]; 48 h) was greater than 500 µM. The MIC ([18]; 24 h) was greater than 500 µM, the MIC ([18]; 48 h) was greater than 500 µM and the MIC ([19]; 24 h) was greater than 500 µM. For the same molecule, the MIC ([19]; 48 h) was greater than 500 µM and the MIC [20] was no less than 500 µg/mL.
